Experimental data from article PMC11678245, “The Molecular Basis of the Intrinsic and Acquired Resistance to Azole Antifungals in Aspergillus fumigatus” (Journal of Fungi, 2024).
“And” between values parts separate entries of the source, which are not always exact repeats. Equal values may be shown once. Read-outs that look alike come from different tables or passages of the source.

Columns and labels:
[1] = system: S. cerevisiae strain ADΔΔ (native ScCYP51); experiment: MIC80 susceptibility, host strain ADΔΔ; assay type: cell-based; settings: Saccharomyces cerevisiae, Table 2, SD pH 6.8, 48 h, 30 °C
Method: (§1) The susceptibilities of S. cerevisiae strains to antifungal drugs were determined as minimum growth inhibitory concentration (MIC) values in 200 μL SD pH 6.8 [24]. Serial 2-fold dilutions of 100 μL of azole or control drugs in SD pH 6.8 were prepared in a 96-well microtiter plate. A portion of a 2 mL SD pH 6.8 overnight culture of the test strain was inoculated into 3 mL fresh SD pH 6.8 and incubated for 4 to 6 h at 30 °C to generate logarithmic-phase cells. These cells were then diluted with fresh SD pH 6.8 to OD600nm = 0.01 (3 × 10^4 CFU), and 100 μL of this cell suspension was added to microtiter plate wells. Cell growth after 48 h incubation at 30 °C with shaking at 200 rpm was determined at 600 nm using a BioTek™ Synergy™ 2 multi-Mode microplate reader controlled using Gen5™ Data Analysis Software version 3.16.10 (BioTek Instruments, Winooski, VT, USA). MIC80 values (80% growth inhibition in the presence of the test drug compared with the untreated control) for each yeast construct were determined as technical triplicates repeated three times for three separate clones.

[2] = system: S. cerevisiae strain ADLS overexpressing ScCYP51-6×His; experiment: MIC80 susceptibility, strain ADLS; assay type: cell-based, Saccharomyces cerevisiae
Method: as §1

[3] = system: S. cerevisiae strain A (AfCyp51A-6×His, native ScCyp51 retained); experiment: MIC80 susceptibility, strain A; assay type: cell-based; settings: Saccharomyces cerevisiae, Table 2, SD pH 6.8, 48 h, 30 °C
Method: as §1

[4] = system: S. cerevisiae strain AR (AfCyp51A-6×His, AfCprA2-6×His); experiment: MIC80 susceptibility, strain AR; assay type: cell-based, Saccharomyces cerevisiae; settings: Saccharomyces cerevisiae, 48 h, pH 6.8
Method: as §1

[5] = system: S. cerevisiae strain ARE (AfCyp51A-6×His, AfCprA2, AfErg6-FLAG); experiment: MIC80 susceptibility, strain ARE; assay type: cell-based, Saccharomyces cerevisiae
Method: as §1

[6] = system: S. cerevisiae strain ARE Y121F (AfCyp51A-6×His Y121F, AfCprA2, AfErg6-FLAG); experiment: MIC80 susceptibility, strain Y121F; assay type: cell-based, Saccharomyces cerevisiae
Method: as §1

[7] = system: S. cerevisiae strain ARE T289A (AfCyp51A-6×His T289A, AfCprA2, AfErg6-FLAG); experiment: MIC80 susceptibility, strain T289A; assay type: cell-based, Saccharomyces cerevisiae; settings: for MIC80: ± SD
Method: as §1

[8] = system: S. cerevisiae strain ARE Y121F T289A (AfCyp51A-6×His Y121F T289A, AfCprA2, AfErg6-FLAG); experiment: MIC80 susceptibility, strain Y121F T289A; assay type: cell-based, Saccharomyces cerevisiae
Method: as §1

[9] = system: S. cerevisiae strain ARE I301T (AfCyp51A-6×His I301T, AfCprA2, AfErg6-FLAG); experiment: MIC80 susceptibility, strain I301T; assay type: cell-based, Saccharomyces cerevisiae; settings: for MIC80: ± SD
Method: as §1

[10] = system: S. cerevisiae strain BR (AfCyp51B-6×His, AfCprA2-6×His); experiment: MIC80 susceptibility, strain BR; assay type: cell-based; settings: Saccharomyces cerevisiae, 48 h, pH 6.8
Method: as §1

[11] = system: S. cerevisiae strain BRE (AfCyp51B-6×His, AfCprA2, AfErg6-FLAG); experiment: MIC80 susceptibility, strain BRE; assay type: cell-based, Saccharomyces cerevisiae; settings: strain BRE; for MIC80 / MIC: ± SD; for MIC: 48 h
Method: as §1

AfCYP51B-6×His = biological target: T1, AfCYP51B-6×His (Aspergillus fumigatus, UniProt E9QY26); experiment: Type II binding of azole drugs (difference spectra)
T1 sequence (E9QY26 1-524): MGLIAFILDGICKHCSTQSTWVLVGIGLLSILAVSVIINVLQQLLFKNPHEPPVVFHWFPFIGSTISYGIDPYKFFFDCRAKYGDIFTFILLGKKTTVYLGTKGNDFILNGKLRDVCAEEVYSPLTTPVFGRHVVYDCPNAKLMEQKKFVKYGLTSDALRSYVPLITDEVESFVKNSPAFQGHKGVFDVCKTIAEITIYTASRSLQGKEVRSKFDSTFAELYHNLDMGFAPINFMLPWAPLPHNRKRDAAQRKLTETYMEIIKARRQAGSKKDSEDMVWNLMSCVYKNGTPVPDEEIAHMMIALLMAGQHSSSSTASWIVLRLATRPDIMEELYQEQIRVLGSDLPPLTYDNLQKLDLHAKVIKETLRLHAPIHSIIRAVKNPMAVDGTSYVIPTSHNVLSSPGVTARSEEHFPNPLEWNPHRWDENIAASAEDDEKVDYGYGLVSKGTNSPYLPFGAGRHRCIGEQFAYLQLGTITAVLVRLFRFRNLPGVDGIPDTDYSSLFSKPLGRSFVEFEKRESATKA
Method: The concentration of AfCYP51A and AfCYP51B, purified using Ni-NTA affinity chromatography and used for the spectrophotometric type I and type II binding assays, was calculated using an extinction co-efficient of λ417nm = 117 mM^−1 cm^−1 applied to the absolute absorption spectrum of the preparations. In addition, the amount of “active” cytochrome P450 enzyme was determined using the carbon monoxide (CO) binding spectra of these preparations.
Type II binding difference spectra were obtained using 1 μM of affinity-purified CYP51 enzymes. VCZ, PCZ, VT-1161, DCZ, and MCF working solutions were prepared in DMSO, while FLC was prepared in Milli-Q water. Azole drugs were added to the sample cuvette, and corresponding amounts of DMSO or Milli-Q water were added to the reference cuvette. Drug binding curves were plotted using the difference spectrum peak and trough detected in the range of 410–425 nm. Dissociation constants (Kd) were determined by nonlinear regression (Levenberg–Marquardt algorithm) of the difference in absorbance between the peak and trough against the azole concentration using a rearrangement of the Morrison equation or the Hill equation [7]. GraphPad Prism 9.2.0 software was used to identify the best fit for the data.

[12] = Saccharomyces cerevisiae, 48 h, pH 6.8
[13] = Saccharomyces cerevisiae, 48 h, read-out: MIC80
[14] = Saccharomyces cerevisiae, Table 3, strain ARE, ± SD, read-out: MIC80
[15] = Saccharomyces cerevisiae, Table 3, strain ARE Y121F, ± SD, read-out: MIC80
[16] = Saccharomyces cerevisiae, Table 3, strain ARE T289A, read-out: MIC80
[17] = Saccharomyces cerevisiae, Table 3, strain ARE Y121F T289A, ± SD, read-out: MIC80
[18] = Saccharomyces cerevisiae, Table 3, strain ARE I301T, read-out: MIC80
[19] = Saccharomyces cerevisiae, Table 3
[20] = Saccharomyces cerevisiae, Table 3, read-out: MIC80
[21] = Table 3, strain ARE Y121F, ± SD
[22] = Table 3, strain ARE Y121F T289A, ± SD

CC1COC(Cn2cncn2)(c2ccc(Oc3ccc(Cl)cc3)cc2Cl)O1 (stereo not drawn) [DCZ, difenoconazole]
MIC80 [1]: < 0.01 µM
MIC80 [2, 12]: 0.04 ± 0.02 µM
MIC80 ([2]; Table 2, strain ADLS, SD pH 6.8, 48 h, 30 °C, ± SD): 0.04 ± 0.01 µM
MIC80 [3]: 0.01 µM
MIC80 [4]: 0.07 ± 0.01 µM
MIC80 [5, 12]: 0.64 ± 0.04 µM
increased susceptibility of AfCYP51A Y121F mutant (vs ARE) [6]: 2 fold
MIC80 [6, 12]: 0.37 ± 0.02 µM
greater susceptibility (MIC80) of strain T289A compared with strain ARE [7]: 64 fold
MIC80 ([7]; Saccharomyces cerevisiae, 48 h, pH 6.8, Table 2, strain T289A, SD pH 6.8, 48 h, 30 °C): < 0.01 µM
increase in resistance (MIC80) of strain Y121F T289A compared with strain ARE [8]: 1.5 fold
MIC80 [8, 12]: 0.92 ± 0.07 µM
MIC80 ([9]; Saccharomyces cerevisiae, 48 h, pH 6.8, Table 2, strain I301T, SD pH 6.8, 48 h, 30 °C): 0.35 ± 0.06 µM
MIC80 [10]: < 0.01 µM
MIC80 ([11]; Saccharomyces cerevisiae, Table 2, SD pH 6.8, 48 h, 30 °C, read-out: MIC80): < 0.01 µM
λpeak (type II difference spectrum) (AfCYP51B-6×His; 1 μM enzyme): 426 nm
λtrough (type II difference spectrum) (AfCYP51B-6×His; 1 μM enzyme): 410 nm
ΔAmax (type II binding) (AfCYP51B-6×His; 1 μM enzyme, Hill equation): 0.10
Hill Number (AfCYP51B-6×His; type II binding): 1.55
Kd (AfCYP51B-6×His; type II binding, 1 μM enzyme, Hill equation): 1760 ± 80 nM

C[C@@H](c1nc(-c2ccc(C#N)cc2)cs1)[C@](O)(Cn1cncn1)c1cc(F)ccc1F [IVC, isavuconazole]
lower susceptibility of strain ARE compared to strain BRE [5]: 2 fold
MIC [5, 13]: < 0.0156 µM
MIC80 [5, 14]: 0.021 ± 0.007 µM
increase in resistance (MIC80) of strain Y121F compared with strain ARE [6]: 3- to 5 fold and 3 fold
MIC80 [6, 15]: 0.071 ± 0.014 µM
MIC80 [7, 16]: 0.0102 ± 0.0057 µM
increase in resistance (MIC80) of strain Y121F T289A compared with strain ARE [8]: 3- to 5 fold
MIC80 [8, 17]: 0.11 ± 0.011 µM
MIC80 [9, 18]: 0.0119 ± 0.0028 µM
MIC [11, 19]: < 0.0156 µM
MIC80 [11, 20]: 0.0109 ± 0.003 µM

OC(Cn1cncn1)(Cn1cncn1)c1ccccc1 [MCC7915]
MIC80 ([5]; Table 3, strain ARE, ± SD): 427 ± 23 µM
reduced susceptibility compared to FLC ([5]; strain ARE): 2.5 fold
MIC80 [6, 21]: 180 ± 11 µM
MIC80 ([7]; Table 3, strain ARE T289A): 248 ± 23 µM
MIC80 [8, 22]: 219 ± 29 µM
MIC80 ([9]; Table 3, strain ARE I301T): 278 ± 45 µM
MIC80 ([11]; Table 3): 223 ± 79 µM
reduced susceptibility compared to FLC [11]: 50 fold

OC(Cn1cncn1)(Cn1cncn1)c1ccccc1F [MCC7916]
MIC80 ([5]; Table 3, strain ARE, ± SD): 120 ± 40 µM
MIC80 [6, 21]: 80 ± 17 µM
MIC80 ([7]; Table 3, strain ARE T289A): 52 ± 6 µM
MIC80 [8, 22]: 198 ± 41 µM
MIC80 ([9]; Table 3, strain ARE I301T): 51 ± 6 µM
MIC80 ([11]; Table 3): 21 ± 3 µM

OC(Cn1cncn1)(Cn1cncn1)c1ccc(F)cc1 [MCC7917]
MIC80 ([5]; Table 3, strain ARE, ± SD): 411 ± 30 µM
MIC80 [6, 21]: 179 ± 9 µM
MIC80 ([7]; Table 3, strain ARE T289A): 103 ± 11 µM
MIC80 [8, 22]: 242 ± 41 µM
MIC80 ([9]; Table 3, strain ARE I301T): 257 ± 37 µM
MIC80 ([11]; Table 3): 38 ± 11 µM

OC(Cn1cncn1)(Cn1cncn1)c1cc(F)ccc1F [MCC8768]
MIC80 ([5]; Table 3, strain ARE, ± SD): 354 ± 76 µM
reduced susceptibility compared to FLC ([5]; strain ARE): ~ 3 fold
MIC80 [6, 21]: 324 ± 109 µM
MIC80 ([7]; Table 3, strain ARE T289A): 106 ± 28 µM
reduced susceptibility compared to FLC ([7]; strain T289A): > 6 fold
MIC80 [8, 22]: 1025 ± 148 µM
MIC80 ([9]; Table 3, strain ARE I301T): 211 ± 21 µM
reduced susceptibility compared to FLC ([9]; strain I301T): ~ 3 fold
MIC80 ([11]; Table 3): 25 ± 8 µM
reduced susceptibility compared to FLC [11]: > 6 fold

C[C@@H](c1nc(-c2ccc(C#N)cc2)cs1)[C@](O)(Cn1cncn1)c1ccc(F)cc1F [RVC, ravuconazole]
lower susceptibility of strain ARE compared to strain BRE [5]: 2 fold
MIC [5, 13]: < 0.0156 µM
MIC80 [5, 14]: 0.0088 ± 0.0023 µM
increase in resistance (MIC80) of strain Y121F compared with strain ARE [6]: 3- to 5 fold and 6 fold
MIC80 [6, 15]: 0.047 ± 0.005 µM
MIC80 [7, 16]: 0.0032 ± 0.0015 µM
increase in resistance (MIC80) of strain Y121F T289A compared with strain ARE [8]: 3- to 5 fold
MIC80 [8, 17]: 0.033 ± 0.006 µM
MIC80 [9, 18]: 0.0034 ± 0.0015 µM
MIC [11, 19]: < 0.0156 µM
MIC80 [11, 20]: 0.0038 ± 0.0008 µM
